# Measurements reported in patent US20260103471A1, “CYCLIC UREA THIAZOLYL COMPOUNDS FOR TREATMENT OF HSV” (Assembly Biosciences, Inc., priority 2022, published 2026).
# Where two headings read alike, the source gives them in different places.
# Legend:
# HSV-1 = HSV-1 Antiviral Assay (Vero cells, cell viability); assay type: cell-based; settings: Human alphaherpesvirus 1, 96 h, Vero cells, read-out: HSV-1 EC50
# Outline: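 Vero cells (2.5×10^3/well) received 8-point 3-fold compound dilutions in 2% FBS medium (0.5% DMSO), then 80 TCID50 HSV-1. After 4 days at 37 °C, cell viability was measured by CellTiter-Glo luminescence.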
# HSV-2 G strain = test: HSV-2 Antiviral Assay (Vero cells, cell viability); assay type: cell-based; settings: for EC50: Human alphaherpesvirus 2, Vero, 120 h, Vero cells, 5 days
# Outline: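 Antiviral readout is survival of infected Vero cells: after 5 days at 37 °C with 160 TCID50 HSV-2 G strain plus serially diluted compound (8 points, 3-fold, 0.5% DMSO), WST-8 was added for 3 h and absorbance measured at 460/620 nm. Cells seeded at 1.0×10^4 per well.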
# [1] = 80 TCID50 HSV-1, 4 days, cell viability
# [2] = 160 TCID50 HSV-2 G strain, cell viability
SMILES,EC50 (HSV-1; [1]),EC50 (HSV-2 G strain; [2]),EC50 (HSV-1; 4 days),EC50 (HSV-2 G strain),"fold more active than Example 314 (5-membered ring analog) (HSV-2 G strain; ratio of EC50 vs Example 314, assay not stated, HSV-2 values only)"
"Cc1nc(N2CCCN(c3ccc(-c4cc(F)ccc4F)cc3)C2=O)sc1[S@@](C)(=N)=O (single isomer, unassigned) [Compound 140]",100 to 1000 nM,100 to 1000 nM,,,
Cc1nc(N2CCCN(c3ccc(-c4cccc5cc(C#N)sc45)cc3)C2=O)sc1S(N)(=O)=O [Compound 274],< 100 nM,< 100 nM,,,
Cc1nc(N2CCCN(c3ccc(-c4cccc5nn(C(C)C)cc45)cc3)C2=O)sc1S(N)(=O)=O [Compound 59],1000 to 5000 nM,1000 to 5000 nM,,,
"Cc1nc(N2CC3(CC3)CN(c3ccc(-c4cc(F)ccc4F)cc3)C2=O)sc1[S@](C)(=N)=O (single isomer, unassigned) [Compound 156]",< 100 nM,< 100 nM,,,
Cc1nc(N2CCCN(c3ccc(-c4cc(F)ccc4C4CC4)cc3)C2=O)sc1S(N)(=O)=O [Compound 22],< 100 nM,< 100 nM,,,
Cc1nc(N2CCCN(c3ccc(-c4cccc5c4cnn5C)cc3)C2=O)sc1S(N)(=O)=O [Compound 55],< 100 nM,< 100 nM,,,
Cc1nc(N2CCCN(c3ccc(-c4ncccc4F)cc3)C2=O)sc1S(N)(=O)=O [Compound 35],< 100 nM,< 100 nM,,,
Cc1nc(N2CCCN(c3ccc(-c4ccccc4C(F)F)cc3)C2=O)sc1S(N)(=O)=O [Compound 12],< 100 nM,< 100 nM,,,
Cc1nc(N2CCCN(c3ccc(-c4cc(Cl)cc5ncsc45)cc3)C2=O)sc1S(N)(=O)=O [Compound 277],< 100 nM,< 100 nM,,,
Cc1nc(N2CCCN(c3ccc(-c4cc(F)cc(Br)c4F)cc3)C2=O)sc1S(N)(=O)=O [Compound 212],< 100 nM,< 100 nM,,,
CNS(=O)(=O)c1sc(N2CCCN(c3ccc(-c4cc(F)ccn4)cc3)C2=O)nc1C [Compound 121],< 100 nM,< 100 nM,,,
Cc1nc(N2CCCN(c3ccc(-c4ncc(C(F)(F)F)s4)cc3)C2=O)sc1S(N)(=O)=O [Compound 45],1000 to 5000 nM,1000 to 5000 nM,,,
"Cc1nc(N2C[C@H](C)CN(c3ccc(-c4ccccc4Cl)cc3)C2=O)sc1S(N)(=O)=O (single isomer, unassigned) [Compound 322]",< 100 nM,< 100 nM,,,
"Cc1nc(N2CCCN(c3cc(F)c(-c4ccccc4)cc3F)C2=O)sc1S(N)(=O)=O [Compound 99, 2-(3-(2,5-Difluoro-[1,1′-biphenyl]-4-yl)-2-oxotetrahydropyrimidin-1(2H)-yl)-4-methylthiazole-5-sulfonamide]",< 100 nM,< 100 nM,,,
CNS(=O)(=O)c1sc(N2CCCN(c3ccc(-c4ccccc4F)c(F)c3)C2=O)nc1C [Compound 132],100 to 1000 nM,< 100 nM,,,
"Cc1nc(N2CCCN(c3ccc(-c4nccs4)cc3)C2=O)sc1S(N)(=O)=O [Compound 42, 4-Methyl-2-(2-oxo-3-(4-(thiazol-2-yl)phenyl)tetrahydropyrimidin-1(2H)-yl) thiazole-5-sulfonamide]",< 100 nM,< 100 nM,,,
Cc1nc(N2CCCN(c3ccc(-c4ccccc4F)cc3F)C2=O)sc1S(N)(=O)=O [Compound 96],< 100 nM,< 100 nM,,,
Cc1nc(N2CCCN(c3ccc(-c4cccc(F)c4)cc3)C2=O)sc1S(N)(=O)=O [Compound 13],< 100 nM,< 100 nM,,,
Cc1nc(N2CCCN(c3ccc(-c4cccc5cn[nH]c45)cc3)C2=O)sc1S(N)(=O)=O [Compound 54],100 to 1000 nM,100 to 1000 nM,,,
Cc1nc(N2CCCN(c3ccc(-c4cccc5c4cnn5C(C)C)cc3)C2=O)sc1S(N)(=O)=O [Compound 56],100 to 1000 nM,100 to 1000 nM,,,
Cc1nc(N2CCCN(c3ccc(-c4nc5c(F)cccc5s4)cc3)C2=O)sc1S(N)(=O)=O [Compound 90],100 to 1000 nM,100 to 1000 nM,,,
Cc1nc(N2CC(C)(C)CN(c3ccc(-c4ccccc4F)cc3)C2=O)sc1S(N)(=O)=O [Compound 105],< 100 nM,< 100 nM,,,
Cc1nc(N2CCCN(c3ccc(-c4cc(F)cc5nonc45)cc3)C2=O)sc1S(N)(=O)=O [Compound 245],< 100 nM,< 100 nM,,,

SMILES,EC50 (HSV-1; [1]),EC50 (HSV-2 G strain; [2]),EC50 (HSV-1; 4 days),EC50 (HSV-2 G strain),"fold more active than Example 314 (5-membered ring analog) (HSV-2 G strain; ratio of EC50 vs Example 314, assay not stated, HSV-2 values only)"
CNS(=O)(=O)c1sc(N2CCCCN(c3ccc(-c4ccccn4)cc3)C2=O)nc1C [Compound 138],< 100 nM,< 100 nM,,,
Cc1nc(N2CCCN(c3ccc(-c4cccc5c4OC(F)(F)O5)cc3)C2=O)sc1S(N)(=O)=O [Compound 80],< 100 nM,< 100 nM,,,
"Cc1nc(N2CCCN(c3ccc(-c4ccccn4)cc3)C2=O)sc1S(N)(=O)=O [Compound 1, 4-Methyl-2-(2-oxo-3-(4-(pyridin-2-yl)phenyl)tetrahydropyrimidin-1(2H)-yl) thiazole-5-sulfonamide]",< 100 nM,< 100 nM,,,
CNS(=O)(=O)c1sc(N2CCCN(Cc3cccc(-c4ccccc4)c3)C2=O)nc1C [Compound 182],< 100 nM,< 100 nM,,,
Cc1nc(N2CCCN(c3ccc(-c4ccccn4)cc3)C2=O)sc1S(=O)(=O)NC1CC1 [Compound 119],< 100 nM,< 100 nM,,,
Cc1nc(N2CC3(CC3)CN(c3ccc(-c4cc(F)ccc4F)cc3)C2=O)sc1S(C)(=N)=O (stereo not shown) [Compound 155],< 100 nM,< 100 nM,,,
Cc1nc(N2CCCN(c3ccc(-c4cc(F)ccc4C#N)cc3)C2=O)sc1S(N)(=O)=O [Compound 24],< 100 nM,< 100 nM,,,
"Cc1nc(N2CCCN([C@@H](C)c3cccc(-c4cc(F)ccc4F)c3)C2=O)sc1S(N)(=O)=O (single isomer, unassigned) [Compound 175]",1000 to 5000 nM,1000 to 5000 nM,,,
Cc1nc(N2CCCN(c3ccc(-c4cc(F)cc5nsnc45)cc3)C2=O)sc1S(N)(=O)=O [Example 259],,,10 nM,7 nM,4 fold
CC(=O)N1CC2(C1)CN(c1ccc(-c3cc(F)ccc3F)cc1)C(=O)N(c1nc(C)c(S(N)(=O)=O)s1)C2 [Compound 338],100 to 1000 nM,100 to 1000 nM,,,
Cc1nc(N2CCCN(c3cccc(-c4cc(F)ccc4F)c3)C2=O)sc1S(N)(=O)=O [Compound 16],100 to 1000 nM,100 to 1000 nM,,,
CNc1cccc(-c2ccc(N3CCCN(c4nc(C)c(S(=O)(=O)NC)s4)C3=O)cc2)n1 [Compound 124],< 100 nM,< 100 nM,,,
"Cc1nc(N2CC3(CC3)CN(c3ccc(-c4ccnn4C)cc3)C2=O)sc1S(N)(=O)=O [Compound 113, 4-Methyl-2-(7-(4-(1-methyl-1H-pyrazol-5-yl)phenyl)-6-oxo-5,7-diazaspiro[2.5]octan-5-yl)thiazole-5-sulfonamide]",1000 to 5000 nM,1000 to 5000 nM,,,
Cc1nc(N2CC3(COC3)CN(c3ccc(-c4cc(F)cc(-c5cnn(C(F)F)c5)c4F)cc3)C2=O)sc1S(C)(=O)=O [Compound 434],< 100 nM,< 100 nM,,,
Cc1nc(N2CCCN(c3ccc(-c4ccccc4F)cc3)C2=O)sc1S(C)(=O)=O [Compound 164],< 100 nM,< 100 nM,,,
"NS(=O)(=O)c1sc(N2CCCN(c3ccc(-c4cc(F)ccc4F)cc3)C2=O)nc1CF [Compound 441, 2-(3-(2′,5′-difluoro-[1,1′-biphenyl]-4-yl)-2-oxotetrahydropyrimidin-1(2H)-yl)-4-(fluoromethyl)thiazole-5-sulfonamide]",< 100 nM,< 100 nM,,,
Cc1nc(N2CCCN(c3ccc(-c4cc(F)cc5c4cc(C#N)n5C)cc3)C2=O)sc1S(N)(=O)=O [Compound 293],< 100 nM,< 100 nM,,,
Cc1nc(N2CCCN(c3ccc(-c4nccs4)cc3)C2=O)sc1S(=O)(=O)NC1CC1 [Compound 127],< 100 nM,< 100 nM,,,
Cc1nc(N2CCCN(c3ccc(-c4cc(Br)ccc4F)cc3)C2=O)sc1S(N)(=O)=O [Compound 25],< 100 nM,< 100 nM,,,
Cc1nc(N2CCCN(c3ccc(-c4cc(F)ccc4F)cc3)C2=O)sc1S(=O)(=O)C1CC1 [Compound 163],100 to 1000 nM,100 to 1000 nM,,,
Cc1nc(N2CCCN(c3ccc(-c4cccc5c4sc(=O)n5C)cc3)C2=O)sc1S(N)(=O)=O [Compound 79],< 100 nM,< 100 nM,,,
Cc1nc(N2CC(C)CN(c3ccc(-c4cc(F)ccc4F)cc3)C2=O)sc1S(N)(=O)=O (stereo not shown) [Compound 318],< 100 nM,< 100 nM,,,
